Experimental data taken from PubChem BioAssay AID2060330 (Molecular Pharmacology Branch, DTP, NCI, 2025).

System: LG0703-F948-PDC spheroids with HUVEC/MSC, viability
Experiment: Anticancer human tumor LG0703-F948-PDC patient-derived lung adenocarcinoma cell line growth inhibition [IpAb]
Conditions: for IC50: curve of first compound; for viability, T/C: stronger effect = lower value
Description: Combinatorial screen of targeted agents with ipatasertib and abemaciclib in multi-cell type tumor spheroids
A high-throughput screen of multi-cell type tumor spheroids was designed to identify active combinations of targeted small molecules and ipatasertib or abemaciclib. Complex spheroids include a stromal component modeled by human endothelial cells (HUVEC) and fibroblasts modeled by human mesenchymal stem cells (MSCs). The concentration ranges selected for each drug and investigational agent were based upon clinically achievable concentrations if the clinical Cmax of the agent was known.
Compounds. The drugs and investigational agents: ipatasertib (NSC767898), abemaciclib(NSC768073), selumetinib (NSC741078), trametinib (758246), adavosertib (NSC754352), everolimus (NSC733504), sapanisertib (NSC764658), vemurafenib (NSC761431), venetoclax (NSC766270), copanlisib (NSC809693), apelisib (NSC765974), palbociblib (NSC758247), vemurafenib (NSC761431), dabrafenib (NSC764134), ravoxertinib (NSC781343), BMS-387032 (NSC767048), sotorasib (NSC818433), talazoparib (NSC767125) and afursertib (NSC778305), were obtained from the National Cancer Institute (NCI) Developmental Therapeutics Program Chemical Repository. The FDA-approved anticancer drug set is available from the NCI Developmental Therapeutics Program. […] The stock solutions were prepared in dimethyl sulfoxide (DMSO, Sigma-Aldrich, St. Louis, MO, cat. D2650) at 800-fold the tested concentration and stored at -70 degrees C prior to their use. All drugs and investigational agents were tested over a range starting from a high concentration at or near the clinical Cmax and decreasing in half-log increments. If the clinical Cmax for an agent had not been determined, the highest concentration tested was 10 microM.
NCI60 Cell Culture. NCI60 cell lines were obtained from the NCI Developmental Therapeutics Program Tumor Repository. For each lot of cells, the Repository performed Applied Biosystems AmpFLSTR Identifiler testing with PCR amplification to confirm consistency with the published Identifier STR profile for each cell line. Cells were kept in continuous culture for no more than 20 passages. The optimal seeding densities for each of the cell lines at each time point assessed were determined prior to performing the concentration response studies. Briefly, the NCI60 human tumor lines were grown as monolayers in RPMI 1640 medium supplemented with 10% FBS and 2 mmol/L L-glutamine.
An additional 9 lines were from the NCI60 cell line panel including MDA-MB-231 breast carcinoma, MDA-MB-468 breast carcinoma, MCF7 breast carcinoma, Hs578T breast carcinoma, MALME-3M melanoma, SK-MEL-2 melanoma, SK-OV-3 ovarian carcinoma, DU-145 prostate carcinoma, PC-3 prostate carcinoma, all cell lines along with major genetic alterations are listed on Table 2. Pooled donor human umbilical vein endothelial cells (HUVEC, Lonza, cat. CC-2519) and human mesenchymal stem cells (hMSC, Lonza, cat. PT-2501) were purchased from Lonza (Walkersville, MD).
PDMR cell lines were grown in complete medium (DC medium): Dulbecco's modified Eagle's medium (DMEM)/F12 supplemented with 5% fetal bovine serum (FBS), 2 mM L-glutamine, 100 U/mL penicillin and 100 µg/ml streptomycin, 0.4 µg/ml hydrocortisone, 10 ng/ml epidermal growth factor (EGF) recombinant human protein, 24 µg/mL adenine, and 0.1 mg/mL primocin. During culture from frozen stock vials, PDMR cells were cultured in the same medium containing 10 µM Y-27632 (see Table 3). The PDCs were cultured in complete DMEM/F12 media without 10 microM Y-27632 dihydrochloride for at least two passages prior to the screen. The pooled donor HUVEC and hMSC were cultured in endothelial cell growth medium 2 (PromoCell, Heidelberg, Germany, cat. C-22011) and mesenchymal stem cell growth medium 2 (PromoCell, cat. C-28009), respectively. For all experiments, HUVEC and hMSC were used at passages </=5.
[…]

[1] = second compound 0.1 µM, first compound 0.0316 µM
[2] = second compound 0.1 µM, first compound 0.1 µM
[3] = second compound 0.1 µM, first compound 0.316 µM
[4] = second compound 0.1 µM, first compound 1 µM
[5] = second compound 0.1 µM, first compound 3.16 µM
[6] = second compound 0.1 µM, first compound 10 µM
[7] = second compound 0.316 µM, first compound 0.0316 µM
[8] = second compound 0.316 µM, first compound 0.1 µM
[9] = second compound 0.316 µM, first compound 0.316 µM
[10] = second compound 0.316 µM, first compound 1 µM
[11] = second compound 0.316 µM, first compound 3.16 µM
[12] = second compound 0.316 µM, first compound 10 µM
[13] = second compound 1 µM, first compound 0.0316 µM
[14] = second compound 1 µM, first compound 0.1 µM
[15] = second compound 1 µM, first compound 0.316 µM
[16] = second compound 1 µM, first compound 1 µM
[17] = second compound 1 µM, first compound 3.16 µM
[18] = second compound 1 µM, first compound 10 µM
[19] = second compound 3.16 µM, first compound 0.0316 µM
[20] = second compound 3.16 µM, first compound 0.1 µM
[21] = second compound 3.16 µM, first compound 0.316 µM
[22] = second compound 3.16 µM, first compound 1 µM
[23] = second compound 3.16 µM, first compound 3.16 µM
[24] = second compound 3.16 µM, first compound 10 µM
[25] = second compound 10 µM, first compound 0.0316 µM
[26] = second compound 10 µM, first compound 0.1 µM
[27] = second compound 10 µM, first compound 0.316 µM
[28] = second compound 10 µM, first compound 1 µM
[29] = second compound 10 µM, first compound 3.16 µM
[30] = second compound 10 µM, first compound 10 µM
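Note: spheroids exposed to compounds for seven days before readout.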
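Throughout, for viability, T/C: T/C percent relative to DMSO vehicle wells set as 100% viability.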

Structure (SMILES) | IC50 (second compound 0.1 µM) [µM] | IC50 (second compound 0.316 µM) [µM] | IC50 (second compound 1 µM) [µM] | IC50 (second compound 3.16 µM) [µM] | IC50 (second compound 10 µM) [µM] | viability, T/C [1] [%] | viability, T/C [2] [%] | viability, T/C [3] [%] | viability, T/C [4] [%] | viability, T/C [5] [%] | viability, T/C [6] [%] | viability, T/C [7] [%] | viability, T/C [8] [%] | viability, T/C [9] [%] | viability, T/C [10] [%] | viability, T/C [11] [%] | viability, T/C [12] [%] | viability, T/C [13] [%] | viability, T/C [14] [%] | viability, T/C [15] [%] | other results
CC1(C)CCC(CN2CCN(c3ccc(C(=O)NS(=O)(=O)c4ccc(NCC5CCOCC5)c([N+](=O)[O-])c4)c(Oc4cnc5[nH]ccc5c4)c3)CC2)=C(c2ccc(Cl)cc2)C1 + CC(C)NCC(C(=O)N1CCN(c2ncnc3c2C(C)CC3O)CC1)c1ccc(Cl)cc1 | 4.06 | 3.19 | < 0.0316 | < 0.0316 | < 0.0316 | 90.8 | 82.1 | 77.8 | 72.8 | 64.2 | 10.8 | 71.2 | 60 | 67.4 | 63 | 50.4 | 8.61 | 49.2 | 43 | 53 | viability, T/C [16]: 46.5%; viability, T/C [17]: 44.3%; viability, T/C [18]: 7.68%; viability, T/C [19]: 42.1%; viability, T/C [20]: 44.4%; viability, T/C [21]: 40.9%; viability, T/C [22]: 39.8%; viability, T/C [23]: 30.6%; viability, T/C [24]: 5.93%; viability, T/C [25]: 41%; viability, T/C [26]: 43.3%; viability, T/C [27]: 35.3%; viability, T/C [28]: 37.9%; viability, T/C [29]: 29.2%; viability, T/C [30]: 3.65%
CCCS(=O)(=O)Nc1ccc(F)c(C(=O)c2c[nH]c3ncc(-c4ccc(Cl)cc4)cc23)c1F + CC(C)NCC(C(=O)N1CCN(c2ncnc3c2C(C)CC3O)CC1)c1ccc(Cl)cc1 | > 10 | > 10 | 3.78 | < 0.0316 | < 0.0316 | 85.5 | 89.6 | 85 | 91.2 | 86.2 | 67.5 | 69.2 | 71.7 | 68.4 | 78.2 | 75 | 55.6 | 54.1 | 49.6 | 50 | viability, T/C [16]: 52.1%; viability, T/C [17]: 56.9%; viability, T/C [18]: 36.5%; viability, T/C [19]: 41.1%; viability, T/C [20]: 42.8%; viability, T/C [21]: 45%; viability, T/C [22]: 46.3%; viability, T/C [23]: 49.6%; viability, T/C [24]: 25.6%; viability, T/C [25]: 35.6%; viability, T/C [26]: 39.7%; viability, T/C [27]: 38.3%; viability, T/C [28]: 45.1%; viability, T/C [29]: 44%; viability, T/C [30]: 7.66%
